Measurements: patent EP1021178B1, “SELENOPHENE ANTI-TUMOR AGENTS” (Purdue Research Foundation, priority 1996, dated 1997)
Like-named read-outs stand apart in the source and are kept apart here.

Tests used:
[1] = test system: human tumor cell line panels; assay: NCI human tumor cell panel, whole-panel summary (mean graph) and lines without a row head; conditions: for Log10 TGI, Delta / Log10 TGI, Range / Log10 LC50, Delta: whole panel
[2] = test system: SK-OV-3; assay: NCI human tumor cell panel; conditions: for CC50: SK-OV-3, read-out: Log10 LC50 (converted)
[3] = test system: MOLT-4; assay: NCI human tumor cell panel; type: cell-based; conditions: MOLT-4, read-out: Log10 LC50 (converted)
[4] = test system: T-47D; assay: NCI human tumor cell panel; type: cell-based; conditions: T47D, read-out: Log10 LC50 (converted)
[5] = test system: SN12C; assay: NCI human tumor cell panel; type: cell-based; conditions: read-out: Log10 LC50 (converted)
[6] = test system: OVCAR-4; assay: NCI human tumor cell panel; type: cell-based; conditions: OVCAR-4, read-out: Log10 LC50 (converted)
[7] = test system: LOX IMVI; assay: NCI human tumor cell panel; type: cell-based; conditions: read-out: Log10 LC50 (converted)
[8] = test system: MCF7/ADR-RES; assay: NCI human tumor cell panel; type: cell-based; conditions: MCF7, read-out: Log10 LC50 (converted)
[9] = test system: UACC-257; assay: NCI human tumor cell panel; type: cell-based; conditions: UACC-257, read-out: Log10 LC50 (converted)
[10] = test system: MDA-MB-231/ATCC; assay: NCI human tumor cell panel; type: cell-based
[11] = test system: CAKI-1; assay: NCI human tumor cell panel; type: cell-based; conditions: CAKI-1, read-out: Log10 LC50 (converted)
[12] = test system: COLO 205; assay: NCI human tumor cell panel; conditions: for CC50: COLO 205, read-out: Log10 LC50 (converted)
[13] = test system: OVCAR-8; assay: NCI human tumor cell panel; conditions: OVCAR-8, read-out: Log10 LC50 (converted)
[14] = test system: HT29; assay: NCI human tumor cell panel; conditions: HT-29, read-out: Log10 LC50 (converted)
[15] = test system: TK-10; assay: NCI human tumor cell panel; conditions: for CC50: TK-10, read-out: Log10 LC50 (converted)
[16] = test system: NCI-H226; assay: NCI human tumor cell panel; conditions: for CC50: NCI-H226, read-out: Log10 LC50 (converted)
[17] = test system: HL-60(TB); assay: NCI human tumor cell panel; conditions: for CC50: HL-60, read-out: Log10 LC50 (converted); for IC (TGI): HL-60, read-out: Log10 TGI
[18] = test system: SF-268; assay: NCI human tumor cell panel; type: cell-based; conditions: SF-268, read-out: Log10 LC50 (converted)
[19] = test system: RXF-393; assay: NCI human tumor cell panel; type: cell-based; conditions: RXF 393, read-out: Log10 LC50 (converted)
[20] = Homo sapiens, read-out: Log10 TGI
[21] = MDA-MB-231, read-out: Log10 LC50, Breast Cancer (converted), MDA-MB-231/ATCC
[22] = MDA-MB-231, read-out: Log10 LC50, MDA-MB-231/ATCC (converted)
[23] = Homo sapiens, read-out: Log10 GI50, Delta, Delta, whole panel (converted)

| Structure (SMILES) | CC50 [2] | CC50 [3] | CC50 [4] | CC50 [5] | CC50 [6] | CC50 [7] | CC50 [8] | CC50 [9] | CC50 [10, 21] | LC50 [11] | CC50 [12] | CC50 [13] | CC50 [14] | CC50 [15] | CC50 [16] | CC50 [17] | LC50 (concentration killing 50% of cells) [18] | CC50 [19] | Log10 TGI, Delta [1] | Log10 TGI, Range [1] | other results |
| --- | --- | --- | --- | --- | --- | --- | --- | --- | --- | --- | --- | --- | --- | --- | --- | --- | --- | --- | --- | --- | --- |
| O=Cc1ccc(-c2ccc(-c3ccc(C=O)[se]3)s2)s1 | > 100 µM | > 100 µM | > 100 µM | > 100 µM | > 100 µM | > 100 µM | > 100 µM | > 100 µM | > 100 µM | 29.5 µM | 91.2 µM | > 100 µM | > 100 µM | 61.7 µM | > 100 µM |  |  |  |  |  | IC (TGI) [1, 20]: 44.7 µM; IC (TGI) ([16]; NCI-H226, read-out: Log10 TGI): > 100 µM |
| OCc1ccc(-c2ccc(-c3ccc(CO)[se]3)s2)s1 | 51.3 µM | > 100 µM |  | > 100 µM | 81.3 µM | 56.2 µM | > 100 µM | 0.24 µM | 97.7 µM |  | 61.7 µM | > 100 µM | > 100 µM | 64.6 µM |  |  |  |  |  |  |  |
| OCc1ccc(-c2ccc(-c3ccc[se]3)s2)[se]1 | > 100 µM | > 100 µM | > 100 µM | > 100 µM | > 100 µM | 85.1 µM | 97.7 µM | 0.457 µM | > 100 µM | 64.6 µM | 66.1 µM | > 100 µM | > 100 µM | 72.4 µM | 0.525 µM | > 100 µM | > 100 µM | > 100 µM |  |  | IC (TGI) ([12]; COLO 205, read-out: Log10 TGI): 12.6 µM |
| OCc1ccc(-c2ccc(-c3ccc[se]3)[se]2)[se]1 |  | > 100 µM | 44.7 µM |  | 47.9 µM | 37.2 µM | > 100 µM |  | > 100 µM | 51.3 µM | > 100 µM | > 100 µM | 58.9 µM | > 100 µM |  | > 100 µM | > 100 µM |  |  |  |  |
| OCc1ccc(-c2ccc(-c3ccc(CO)[se]3)[se]2)[se]1 |  | > 100 µM |  | > 100 µM | 49 µM | > 100 µM | > 100 µM | 31.6 µM |  | 13.2 µM | 17.8 µM | 72.4 µM | 66.1 µM | 15.8 µM | 9.12 µM |  | 20.9 µM | 8.71 µM |  |  | IC (TGI) [1, 20]: 10.5 µM; IC (TGI) ([15]; TK-10, read-out: Log10 TGI): 0.661 µM |
| OCc1ccc(-c2ccc(-c3ccc(CO)s3)[se]2)s1 | > 100 µM | > 100 µM | > 100 µM | > 100 µM | > 100 µM | > 100 µM | > 100 µM |  | > 100 µM | > 100 µM | 22.9 µM | > 100 µM | > 100 µM | > 100 µM | > 100 µM | > 100 µM | > 100 µM | > 100 µM |  |  | IC (TGI) ([2]; SK-OV-3, read-out: Log10 TGI): > 100 µM |
| OCc1ccc(-c2ccc(-c3ccc(CO)[se]3)s2)[se]1 |  | > 100 µM |  | > 100 µM | > 100 µM | > 100 µM | > 100 µM |  | > 100 µM | > 100 µM |  | > 100 µM | > 100 µM | > 100 µM | > 100 µM | > 100 µM | > 100 µM | > 100 µM |  |  |  |
| OCc1ccc(-c2ccc(-c3cccs3)[se]2)s1 | > 100 µM | > 100 µM | > 100 µM | > 100 µM | > 100 µM | > 100 µM | > 100 µM | 0.0525 µM |  |  |  | > 100 µM | > 100 µM | > 100 µM | 0.224 µM | > 100 µM | > 100 µM | > 100 µM | 3.46 | 4.00 | GI50 ([1]; Homo sapiens, read-out: Log10 GI50, MG_MID (converted)): 5.25 µM; CC50 ([1]; Homo sapiens, read-out: Log10 LC50, MG_MID (converted)): 61.7 µM; IC (TGI) ([1]; Homo sapiens, read-out: Log10 TGI, MG_MID): 28.8 µM; CC50 [10, 22]: > 100 µM |
| O=Cc1ccc(-c2ccc(-c3ccc(C=O)[se]3)s2)[se]1 | > 100 µM | > 100 µM | > 100 µM | > 100 µM | > 100 µM | > 100 µM | > 100 µM | 6.92 µM |  | > 100 µM | > 100 µM | > 100 µM | > 100 µM | > 100 µM | 2.45 µM | > 100 µM | > 100 µM | > 100 µM | -4.17 | 2.18 | Log10 LC50, Delta [1]: -4.07; IC (TGI) [17]: > 100 µM; CC50 [10, 22]: > 100 µM |
| O=Cc1ccc(-c2ccc(-c3ccc(C=O)[se]3)[se]2)[se]1 |  | > 100 µM | > 100 µM | > 100 µM | > 100 µM | > 100 µM | > 100 µM | > 100 µM |  | > 100 µM | > 100 µM | > 100 µM | > 100 µM | > 100 µM | > 100 µM | > 100 µM | > 100 µM | > 100 µM | -4.18 | 1.91 | Log10 LC50, Delta [1]: -4.02; GI50 [1, 23]: 21.4 µM; CC50 [10, 22]: > 100 µM |
| O=Cc1ccc(-c2ccc(-c3ccc[se]3)[se]2)[se]1 |  | > 100 µM | 47.9 µM | 50.1 µM | 60.3 µM | 77.6 µM |  | 33.1 µM |  | 14.5 µM | 34.7 µM | 95.5 µM | 36.3 µM | 25.1 µM | 38.9 µM | > 100 µM | > 100 µM | > 100 µM | -4.78 | 1.37 | Log10 LC50, Delta [1]: -4.25; GI50 [1, 23]: 3.72 µM |
| O=Cc1ccc(-c2ccc(-c3cccs3)[se]2)s1 | > 100 µM | > 100 µM | 91.2 µM | > 100 µM | > 100 µM | > 100 µM | > 100 µM | 0.309 µM |  |  | > 100 µM | > 100 µM | > 100 µM | 53.7 µM | 1.05 µM | > 100 µM | > 100 µM | > 100 µM | -4.42 | 3.13 | Log10 LC50, Delta [1]: -4.13; GI50 [1, 23]: 6.76 µM |
| O=Cc1ccc(-c2ccc(-c3ccc(C=O)s3)[se]2)s1 | > 100 µM | > 100 µM | > 100 µM | > 100 µM | > 100 µM | > 100 µM | > 100 µM | 5.75 µM |  | > 100 µM | > 100 µM | > 100 µM | > 100 µM | > 100 µM | 8.51 µM | > 100 µM | > 100 µM | > 100 µM | -4.21 | 1.61 | Log10 LC50, Delta [1]: -4.07; GI50 [1, 23]: 17.8 µM; IC (TGI) [17]: > 100 µM; CC50 [10, 22]: > 100 µM |
